What all share (format): cell-based
Data set [1] in a line: WST-1 cell proliferation (cytotoxicity) assay, KB-31. The settings on record: human, WST-1, incubated for 5 days. The protocol: (§1) The cytotoxicity was determined using WST-1 cell proliferation assays. Targeting cell lines are L929 mouse fibroblasts, KB-31 epidermoid carcinoma, and MCF-7 breast cancer cell lines which were incubated for 5 days with the test substances. The acute toxicity was determined using the FS4-LTM conditional immortalization human fibroblasts cell line which was incubated for 24 hours with the test compounds.
In general terms: Tetrazolium assays rely on reduction of a dye to a coloured formazan, in cell work by metabolically active cells.

For data set [2], the system named is KB-31 epidermoid carcinoma cells. Described as above. The conditions noted are these: WST-1, incubated for 5 days. The protocol: as §1
Data set [3] in a line: Acute toxicity, WST-1 assay, FS4-LTM. The settings on record: human, FS4-LTM conditionally immortalized fibroblasts, FS4-LTM conditional immortalization human fibroblasts, incubated for 24 hours; read-out: Cytotoxicity (acute toxicity) IC50 FS4-LTM. The procedure: as §1
For data set [4], the system named is FS4-LTM conditional immortalization human fibroblasts. As to the kind of experiment: Acute toxicity, WST-1 assay, FS4-LTM. The settings on record: incubated for 24 hours, read-out: Cytotoxicity (acute toxicity) IC50 FS4-LTM. The procedure:
as §1

Data set [5] in a line: WST-1 cell proliferation (cytotoxicity) assay, MCF-7. The conditions noted are these: human, MCF-7 breast cancer cell line, WST-1, incubated for 5 days. The protocol: as §1
In data set [6] the test system is MCF-7 breast cancer cell line. The data set is described as above. The conditions noted are these: WST-1, incubated for 5 days. The procedure:
as §1

A short description of data set [7]: WST-1 cell proliferation (cytotoxicity) assay, L929. The settings on record: L929 mouse fibroblasts, WST-1, incubated for 5 days. The protocol: as §1
[8] abbreviates: KB-31 epidermoid carcinoma cells.

For orientation: IC50 means the concentration needed to halve the response being measured. For `COC1=C(Br)[C@H](O)[C@@]2(C=C1Br)CC(C(=O)NCCCOc1ccc([C@H](O)CNC(=O)C3=NO[C@]4(C=C(Br)C(OC)=C(Br)[C@@H]4O)C3)cc1Br)=NO2` [Compound 1, 14-debromo-11-deoxyfistularin-3], the midpoint of inhibition in data set [1] (setting [8]), the IC50 at 5 days, lay at 69 µM. The midpoint of inhibition in data set [2], the IC50, lay at 68.8 µM.
Turning to `COC1=C(Br)[C@H](O)[C@@]2(C=C1Br)CC(C(=O)NC[C@@H](O)c1cc(Br)c(OCCCNC(C)=O)c(Br)c1)=NO2` [Compound 2, aplysinin A], the IC50 at 24 hours in data set [3] worked out at 32 µM. The IC50 in data set [4] was determined as 32.2 µM; in data set [6], 77.5 µM; in data set [2] it was 25.8 µM. Further, the IC50 at 5 days in data set [5] (MCF-7 breast cancer cells) is 78 µM; in data set [1] (setting [8]) it was 26 µM.
In the case of `COC1=C(Br)[C@H](O)[C@@]2(C=C1Br)CC(C(=O)NCCCOc1ccc(CCN)cc1Br)=NO2` [Compound 4, 14-debromoaraplysillin I], the results for the half-inhibitory concentration (IC50) at 5 days in data set [5] (MCF-7 breast cancer cells) and in data set [7] were 78.6 µM and 94.3 µM, respectively.
Take `COC1=C(Br)[C@H](O)[C@@]2(C=C1Br)CC(C(=O)NCC(O)COc1c(Br)cc(C(O)CNC(=O)C3=NO[C@]4(C=C(Br)C(OC)=C(Br)[C@@H]4O)C3)cc1Br)=NO2` (stereo partly shown) [Compound 5, fistularin-3]: in data set [5], half-maximal inhibition (IC50 at 5 days) was put at 207 µM.
As to `COC1=C(Br)[C@H](O)[C@@]2(C=C1Br)CC(C(=O)NCCCOc1c(Br)cc(CCNC(=O)C3=NO[C@]4(C=C(Br)C(OC)=C(Br)[C@@H]4O)C3)cc1Br)=NO2` [Compound 6, 11,19-dideoxyfistularin-3], the IC50 at 5 days turned out to be 88.2 µM in data set [1] (KB-31 epidermoid carcinoma) and 118 µM in data set [7].
For `COC1=C(Br)[C@H](O)[C@@]2(C=C1Br)CC(C(=O)NCCc1cc(Br)c(OCC(O)CNC(=O)C3=NO[C@]4(C=C(Br)C(OC)=C(Br)[C@@H]4O)C3)c(Br)c1)=NO2` (stereo partly shown) [Compound 7, 19-deoxyfistularin-3], the midpoint of inhibition in data set [5], the IC50 at 5 days, lay at 60 µM.
In the case of `COC1=C(Br)[C@H](O)[C@@]2(C=C1Br)CC(C(=O)NCCCOc1c(Br)cc(C(O)CNC(=O)C3=NO[C@]4(C=C(Br)C(OC)=C(Br)[C@@H]4O)C3)cc1Br)=NO2` (stereo partly shown) [Compound 8, 11-deoxyfistularin-3], the IC50 at 24 hours in data set [3] came out at 87.3 µM. For the same compound, half-maximal inhibition in data set [5] (MCF-7 breast cancer cells) (IC50 at 5 days) was put at 47.2 µM.
For `COC1=C(Br)[C@H](O)[C@@]2(C=C1Br)CC(C(=O)NCCc1cc(Br)c(OCCCN)c(Br)c1)=NO2` [Compound 10, hexadellin B], in that order: 73.4 µM and 90.6 µM.
In the case of `CNc1nc(CCCNC(=O)C2=NO[C@]3(C=C(Br)C(OC)=C(Br)[C@@H]3O)C2)c[nH]1` [Compound 15, N-methyl-aerophobin-2], the results for the IC50 at 5 days in data set [1] (setting [8]) and in data set [7] were 48.9 µM and 55.9 µM, respectively.
Regarding `COC1=C(Br)[C@@H]2OC(=O)C[C@]2(O)C=C1Br` [Compound 16, aeroplysinin-2], the concentration for half-maximal inhibition (IC50) at 5 days in data set [5] was found to be 96.3 µM.
In data set [5] (MCF-7 breast cancer cells), `COC(=O)Cc1cc(Br)c(O)c(Br)c1O` [Compound 17, subereaphenol B] came in with a concentration for half-maximal inhibition (IC50) at 5 days of 64.8 µM.

(Values after PMC4685874, “Bromotyrosine-derived alkaloids from the Caribbean sponge Aplysina lacunosa” (Beilstein Journal of Organic Chemistry, 2015).)
